This assay concerns the target T1, DNA helicase [35-727] (Plasmodium falciparum, UniProt Q8I3W6).
T1 construct: 35-727
T1 sequence (Q8I3W6 whole entry): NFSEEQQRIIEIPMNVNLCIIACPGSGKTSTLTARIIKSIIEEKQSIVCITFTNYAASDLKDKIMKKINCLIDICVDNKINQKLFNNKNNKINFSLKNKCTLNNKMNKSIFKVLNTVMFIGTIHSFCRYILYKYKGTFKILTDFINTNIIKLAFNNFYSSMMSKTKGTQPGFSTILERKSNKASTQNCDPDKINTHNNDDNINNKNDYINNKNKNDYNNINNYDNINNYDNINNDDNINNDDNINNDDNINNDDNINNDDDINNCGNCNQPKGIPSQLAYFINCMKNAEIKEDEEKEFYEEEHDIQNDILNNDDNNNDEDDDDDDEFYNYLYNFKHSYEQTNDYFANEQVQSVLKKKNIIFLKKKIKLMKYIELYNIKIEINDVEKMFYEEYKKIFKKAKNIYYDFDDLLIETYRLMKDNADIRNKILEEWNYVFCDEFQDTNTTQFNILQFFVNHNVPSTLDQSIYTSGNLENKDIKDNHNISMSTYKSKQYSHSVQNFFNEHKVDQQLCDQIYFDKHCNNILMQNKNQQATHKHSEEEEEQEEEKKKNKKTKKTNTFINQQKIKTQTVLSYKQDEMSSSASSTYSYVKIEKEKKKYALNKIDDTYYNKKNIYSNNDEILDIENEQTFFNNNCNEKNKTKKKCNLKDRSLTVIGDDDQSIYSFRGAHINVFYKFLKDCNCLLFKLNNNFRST
Description: DNA-Dependent ATPase Assay. Conditions: pH 8; 37 °C. The method, then: The hydrolysis of ATP catalyzed by PfUDN was assayed by measuring the formation of Pi from [γ-32P] ATP. The reaction mixture of 10 μl contained [γ-32P] ATP (specific activity 222 TBq. mmol^−1) and cold ATP (1 mM), ATPase buffer (20 mM Tris-HCl, pH 8.0, 8 mM DTT, 1.0 mM MgCl2, 20 mM KCl and 16 μg/ml BSA), purified PfUDN and 50 ng or 100 ng of M13 mp19 ssDNA. The reaction mixtures were incubated at 37°C for 60 min.

A word on the IC50: it is the concentration that inhibits the measured activity by half.

Counter-ions that a name gives are not always drawn.

Turning to `CC[n+]1c(-c2ccccc2)c2cc(N)ccc2c2ccc(N)cc21` [AB00053825_07], the IC50 was found to be 3.1 µM.

In turn, `COc1cccc2c1C(=O)c1c(O)c3c(c(O)c1C2=O)C[C@@](O)(C(C)=O)C[C@@H]3O[C@H]1C[C@H](N)[C@H](O)[C@H](C)O1` [(7S,9S)-9-acetyl-7-[(2R,4S,5S,6S)-4-amino-5-hydroxy-6-methyloxan-2-yl]oxy-6,9,11-trihydroxy-4-methoxy-8,10-dihydro-7H-tetracene-5,12-dione;hydrochloride] had an IC50 of 4.4 µM.

Source of the values: BindingDB's records for doi:10.1186/1471-2091-15-9 (International Centre for Genetic Engineering and …, 2014).
